Laboratory results from article PMC4818757, “Small molecule inhibitors of the Dishevelled‐CXXC5 interaction are new drug candidates for bone anabolic osteoporosis therapy” (EMBO Molecular Medicine, 2016).

What was measured:
Wnt/β‐catenin pathway = experiment: TOPflash reporter assay; assay type: cell-based, murine; details: MC3T3E1 cells, 2 days
Method: Figure 3 Effect of KY‐02061 on Wnt/β‐catenin pathway, osteoblast differentiation, and ex vivo‐cultured calvaria growth • A MC3T3E1 cells were transfected with pTOPFLASH together with pCMV‐β‐gal. After 24 h, the cells were treated with DMSO, KY‐02061 in DMSO, or 5 μM PolyR‐DBM for 2 days. The luciferase activities of whole‐cell lysates were measured and normalized with β‐galactosidase activities. (n = 3) • B Primary calvaria cells were isolated from the calvariae of 4‐day‐old mice (Manton et al, 2007) and treated with DMSO or KY‐02061 in DMSO for 4 days. ALP activity levels were visualized by ALP staining. • C Primary calvaria cells were treated with DMSO or 5 μM KY‐02061 in DMSO for 14 days. […] The calvaria thicknesses were measured from the stained sections using Image Pro software (E). […] (error bars), and significance was assessed using unpaired Student's t‐test.
Figure 5 Effects of KY‐02327 on Wnt/β‐catenin pathway and osteoblast differentiation in osteoblasts • A MC3T3E1 cells were transfected with pTOPFLASH together with pCMV‐β‐gal. […] The luciferase activities of whole‐cell lysates were measured and normalized with β‐galactosidase activities. (n = 3) • B, C MC3T3E1 cells were treated with indicated concentrations of KY‐02327 for 2 days. β‐Catenin and α‐tubulin were detected by immunoblot (B) or immunofluorescence (C) analyses. […] The mRNA level of osteocalcin (OCN) was measured by qRT–PCR. […]

Dvl PDZ domain = molecular target: T1, Dvl PDZ domain (Homo sapiens, UniProt O14640); experiment: NMR titration (1H-15N-HSQC); assay type: binding
T1 construct: plasmid DNA encoding Dvl-1247- 341 (the Dvl PDZ domain); His-tag (TEV-cleavable) (cleaved yes); made in house; host or cells: E. coli BL21 (DE3)
T1 sequence (O14640 247-341 limits assumed): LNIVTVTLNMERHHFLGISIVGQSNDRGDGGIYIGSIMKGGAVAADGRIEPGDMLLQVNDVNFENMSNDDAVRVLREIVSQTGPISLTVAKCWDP
Method: For NMR titration, ^1H‐^15N‐heteronuclear single‐quantum coherence spectroscopy (HSQC) was performed using various molar ratios of ^15N‐labeled Dvl PDZ domain relative to the DBM peptide, KY‐02061, or KY‐02327. For the Dvl PDZ domain and DBM titration, the molar ratios of ^15N‐labeled Dvl PDZ domain to peptide ligand were 1:5, 1:10, 1:15, 1:20, and 1:25. For the Dvl PDZ domain and KY‐02061 titration, the molar ratios were 1:10, 1:20, 1:40, 1:60, and 1:80. For the Dvl PDZ domain and KY‐02327 titration, the molar ratios were 1:0, 1:5, 1:10, and 1:20. All spectra were processed using XWINNMR (Bruker Biospin Corp., Billerica, MA) and NMRpipe/NMRDraw software (Delaglio et al, 1995). Using the Sparky program, all residues in each spectrum were completely assigned, and the chemical shift perturbations were calculated using the equation ΔδAV = ((Δδ1H)^2 + (Δδ15N/5)^2)^1/2, where ΔδAV, Δδ1H, and Δδ15N are the average, proton, and ^15N chemical shift changes, respectively. The residues showing ΔδAV > 0.05 were selected as residues participating in the interaction.
Dvl PDZ domain purification
E. coli strain BL21 (DE3) was transformed with plasmid DNA encoding Dvl-1247-341 (the Dvl PDZ domain), and the cells were grown in M9 minimal medium containing 15N isotope for 17 hours at 21°C and after then 1 mM isopropyl-1-thio-β -D-thiogalactopyranoside was treated. […]

| Structure (SMILES) | activation of the Wnt/β‐catenin pathway (TOPflash luciferase) (Wnt/β‐catenin pathway) | residues of Dvl PDZ domain perturbed (chemical shift change > 0.05) (Dvl PDZ domain) |
| --- | --- | --- |
| CCOC(=O)Cn1c(C(=O)OCC)cc2cc(OS(=O)(=O)c3ccc(C)cc3)ccc21 [KY‐02061] | increased | one residue in βB (S265) and three residues in αB (L321, R322, and V325) were perturbed |
| CCOC(=O)c1cc2cc(O)ccc2n1CC(=O)NCCN1CCCCC1 [KY‐02327] | dose‐dependent effect | one residue in βA (I250) and three residues in αB (V318, R322, and V325) of Dvl PDZ were perturbed |
